Values joined by “and” are separate entries in the source; they are usually repeats but may differ in a detail not shown here. Equal entries are not always repeated. Where two headings read alike, the source gives them in different places.
Experiment: Partition coefficient Kpart between n-octanol and aqueous tris hydrochloride
Assay type: physicochemical
Conditions: n-octanol / aqueous tris hydrochloride (20 mM, pH 7.4); for logD: octanol/tris hydrochloride 20 mm
Method: The partition coefficients of four or five samples of each of the compounds of Examples 2 and 4 were measured using essentially the procedure described in Example 25 of UK Patent No. 2 136 807. For comparative purposes a similar measurement was made for the compound 1-(2-acetoxyethyl)-2-ethyl-3-hydroxypyridin-4-one which was prepared by an analogous procedure to that of Example 5 using acetyl chloride in place of isobutyryl chloride. The results obtained for the partition coefficient Kpart, being the ratio (concentration of compound in n-octanol)/concentration of compound in aqueous phase on partition between n-octanol and aqueous tris hydrochloride (20 mM, pH 7.4), are shown in the Table.

[1] = pH 7.4, mean of four or five samples, read-out: partition coefficient Kpart, Mean ± S.E. (converted)

| partition coefficient Kpart, Mean ± S.E. (mean of four or five samples) | partition coefficient Kpart (concentration in n-octanol / concentration in aqueous phase), individual samples (individual samples 1-5, listed as (CH3)2 CHCOO) | logD (individual samples 1-5, read-out: partition coefficient Kpart (concentration in n-octanol / concentration in aqueous phase), individual samples (converted)) | SMILES | partition coefficient Kpart (concentration in n-octanol / concentration in aqueous phase), individual samples (individual samples 1-5, listed as (CH3)3 CCOO) | partition coefficient Kpart (concentration in n-octanol / concentration in aqueous phase), individual samples (individual samples 1-5) | logD [1] |
| --- | --- | --- | --- | --- | --- | --- |
| 6.113 ± 1.622 | – | – | CCc1c(O)c(=O)ccn1CCOC(=O)C(C)(C)C [Example 2, 2-ethyl-3-hydroxy-1-(2-pivaloyloxyethyl)pyridin-4-one] | 5.104 and 7.992 and 3.870 and 6.742 and 6.855 | – | – |
| – | – | – | CCc1c(O)c(=O)ccn1CCOC(C)=O [CH3 COO, 1-(2-acetoxyethyl)-2-ethyl-3-hydroxypyridin-4-one, reference compound] | – | 1.500 and 0.948 and 0.940 and 0.962 | 0.0366 |
| – | 4.541 and 4.224 and 4.797 | 0.699 | CCc1c(O)c(=O)ccn1CCOC(=O)C(C)C [Example 4, 2-ethyl-3-hydroxy-1-[2-(α-methylpropionyloxy)ethyl]pyridin-4-one] | – | – | 0.667 |

From patent US5480894A, “3-hydroxypyridin-4-one derivatives as chelating agents” (British Technology Group Limited, priority 1992, dated 1996)
